# Assay results taken from paper PMC8617031, “Development of a BCL-xL and BCL-2 dual degrader with improved anti-leukemic activity,” (Nature Communications, 2021).
# Several values for one entry are separate records, joined by “and”; a condition that tells them apart may be missing. Equal entries are not always repeated.
# Legend:
# Assay type in all cases: cell-based, human
# Flag-BCL-2 WT or mutants = experiment: Polyubiquitination assay (Flag IP, HA-Ub blot), BCL-2; settings: 293T cells, MG132 10 µM pretreatment, 753b 1 uM, 5 h
# Text: K16-only, K20-only, and K87-only represent that all the surface lysines on BCL-xL are mutated to arginines except K16, K20, and K87, respectively. Representative immunoblots of Flag-BCL-xL WT and mutants are shown in the top panel. […] K17R and K22R represents that K17 and K22 on BCL-2 are respectively mutated to arginine; K17/22R means both K17 and K22 on BCL-2 are mutated to arginine. Representative immunoblots of Flag-BCL-2 WT and mutants are shown in the top panel. The quantification of the relative Flag-BCL-xL or Flag-BCL-2 protein content in the immunoblots is presented as mean values ± s.e.m. (n = 3 biologically independent experiments) in the bottom panel. […] After 36 h, cells were pre-treated with MG132 (10 µM) for 2 h and then treated with or without 753b (0.1 µM for BCL-xL and 1 uM for BCL-2) for 5 h. The Flag-tagged proteins were immunoprecipitated (IP) and immunoblotted with HA or Flag antibody. The input results are shown in Supplementary Fig. 9. Data are a representative of two independent experiments. Source data are provided as a Source data file.
# Proteins were extracted by using IP lysis buffer (Cat. No. 87788, Thermal Fisher Scientific) and IP was performed using Anti-FLAG M2 Magnetic Beads (Cat. No. M8823, Sigma-Aldrich) according to the manufacturer’s protocol. […]
# Kasumi-1 cells = experiment: Apoptosis by Annexin-V/DAPI flow cytometry in Kasumi-1 cells; settings: Fig. 7c-e, g
# Protocol: After treatment, cells were stained with Annexin V-FLUOS (1: 200, Cat. No. 11828681001, Roche, Little Falls, NJ, USA) at room temperature for 15 min, washed with PBS and then added DAPI (0.2 μg/mL, Cat. No. D1306, Invitrogen, Waltham, MA, USA) for apoptosis flow cytometry on Gallios (Beckman, Indianapolis, IN, USA).
# [1] = tested on: HiBit-BCL-xL-WT/K157-only/K-ko with HaloTag-VHL; experiment: NanoBRET ternary complex formation of WT, K157-only and K-ko BCL-xL with VHL and DT2216 in 293T cells; settings: triplicate wells
# Text: Plasmids HaloTag-VHL (Cat. No. CS1679C155) and CMV HiBit (Cat. No. CS1956B03) were purchased from Promega. HiBit-BCL-xL and HiBit-BCL-2 were constructed previously. The two mutants (HiBit-BCL-xL-K157-only and HiBit-BCL-xL-K-ko) were constructed through Gibson assembly method. The primer pair (5′-[…]-3′ and 5′-[…]c[…]-3′) and the template Flag-BCL-xL-K157-only or Flag-BCL-xL-K-ko (pDL2129)[2] were used to clone the BCL-xL-K157-only-containing and BCL-xL-K-ko-containing fragments, respectively. The primer pair (5′-[…]g[…]-3′ and 5′-[…]-3′) and pBit3.1-N (Cat. No. N2361, Promega) were used to clone the vector-containing fragment. The PCR fragments were assembled using NEBuilder® HiFi DNA Assembly Master Mix (Cat. No. E2621, NEB, Ipswich, MA, USA). DNA sequences in all these plasmids were authenticated by automatic sequencing. […] After 24 h, 2 × 10^4 transfected cells were seeded into white 96-well tissue culture plates in Gibco™ Opti-MEM™ I Reduced Serum Medium, No Phenol Red (Cat. No. 11-058-021, Fisher) containing 4% FBS with or without HaloTag NanoBRET 618 Ligand (Cat. No. PRN1662, Promega) and incubated overnight at 37 °C, 5% CO2. The following day, serial diluted compounds were added into the medium and plates were incubated at 37 °C, 5% CO2, for 6 h. After treatment, NanoBRET Nano-Glo Substrate (cat. no. N1662, Promega) was added into the medium, and the contents were mixed by shaking the plate for 30 s before measuring donor and acceptor signals on Biotek plate reader. Dual-filtered luminescence was collected with a 450/50 nm bandpass filter (donor, NanoBiT-BCL-XL protein or NanoBiT-BCL-2 protein) and a 610-nm longpass filter (acceptor, HaloTag NanoBRET ligand) using an integration time of 0.5 s. mBRET ratios were calculated following the NanoBRET™ Nano-Glo® Detection System (Cat. No. N1662, Promega).
# Supplementary Fig. 3. […] WT represents wild type HiBit-BCL-xL; K157-only means that all the surface lysines on BCL-xL are mutated to arginines except K157; K-ko represents that all the surface lysines on BCL-xL are mutated to arginines. Data are expressed as mean ± s.e.m. of three biological replicates. Source data are provided as a Source Data file.
smiles,measurement,setting,value
Cc1ncsc1-c1ccc([C@H](C)NC(=O)[C@@H]2C[C@@H](O)CN2C(=O)[C@@H](NC(=O)CCCCCCC(=O)N2CCN(C[C@]3(C)CCC(c4ccc(Cl)cc4)=C(CN4CCN(c5ccc(C(=O)NS(=O)(=O)c6ccc(N[C@H](CCN7CCOCC7)CSc7ccccc7)c(S(=O)(=O)C(F)(F)F)c6)cc5)CC4)C3)CC2)C(C)(C)C)cc1 [753b],polyubiquitination of BCL-2 WT and mutants (in words),Flag-BCL-2 WT or mutants,"induces polyubiquitination of WT and K22R BCL-2, but not K17R and K17/22R BCL-2"
same,killing of Kasumi-1 cells by induction of apoptosis (in words),Kasumi-1 cells,"more potent than DT2216, ABT199 (a selective BCL-2 inhibitor) and ABT263 in killing Kasumi-1 cells by induction of apoptosis"
Cc1ncsc1-c1ccc([C@H](C)NC(=O)[C@@H]2C[C@@H](O)CN2C(=O)[C@@H](NC(=O)CCCCCC(=O)N2CCN(CC[C@H](CSc3ccccc3)Nc3ccc(S(=O)(=O)NC(=O)c4ccc(N5CCN(CC6=C(c7ccc(Cl)cc7)CCC(C)(C)C6)CC5)cc4)cc3S(=O)(=O)C(F)(F)F)CC2)C(C)(C)C)cc1 [DT2216],"NanoBRET ratio (610/450, background-corrected), Ave of Read1 and Read2","[1]; BCL-xL-K157-only, 0.004 uM",10.7987 and 11.5766 and 10.5479
same,"NanoBRET ratio (610/450, background-corrected), Ave of Read1 and Read2","[1]; BCL-xL-K157-only, 0.012 uM",11.0721 and 10.709 and 10.6817
same,"NanoBRET ratio (610/450, background-corrected), Read1","[1]; BCL-xL-K157-only, 0.333 uM",10.8894 and 11.2489 and 10.7657
same,"NanoBRET ratio (610/450, background-corrected), Read2","[1]; BCL-xL-K157-only, 0.333 uM",10.7079 and 11.9043 and 10.3302
same,"NanoBRET ratio (610/450, background-corrected), Read1","[1]; BCL-xL-K157-only, 1 uM",11.6598 and 10.7529 and 10.4117
same,"NanoBRET ratio (610/450, background-corrected), Read2","[1]; BCL-xL-K157-only, 1 uM",10.4844 and 10.6651 and 10.9516
same,"NanoBRET ratio (610/450, background-corrected), Read1","[1]; BCL-xL-K157-only, 3 uM",10.1831 and 11.8895 and 11.1918
same,"NanoBRET ratio (610/450, background-corrected), Read2","[1]; BCL-xL-K157-only, 3 uM",9.289 and 10.911 and 11.6927
same,"NanoBRET ratio (610/450, background-corrected), Ave of Read1 and Read2","[1]; BCL-xL-K-ko, 0.111 uM",9.743 and 8.289 and 8.518
same,"NanoBRET ratio (610/450, background-corrected), Ave of Read1 and Read2","[1]; BCL-xL-K-ko, 0.333 uM",10.8261 and 11.8027 and 12.9139
same,"NanoBRET ratio (610/450, background-corrected), Read1","[1]; BCL-xL-K-ko, 0.333 uM",11.2191 and 11.4255 and 13.2322
same,"NanoBRET ratio (610/450, background-corrected), Read2","[1]; BCL-xL-K-ko, 0.333 uM",10.4332 and 12.18 and 12.5957
same,"NanoBRET ratio (610/450, background-corrected), Ave of Read1 and Read2","[1]; BCL-xL-K-ko, 1 uM",12.3201 and 11.4125 and 11.9637
same,"NanoBRET ratio (610/450, background-corrected), Read1","[1]; BCL-xL-K-ko, 1 uM",11.8556 and 11.5549 and 12.6815
same,"NanoBRET ratio (610/450, background-corrected), Read2","[1]; BCL-xL-K-ko, 1 uM",12.7845 and 11.2702 and 11.2459
same,"NanoBRET ratio (610/450, background-corrected), Ave of Read1 and Read2","[1]; BCL-xL-K-ko, 3 uM",11.1936 and 11.8549 and 13.734
same,"NanoBRET ratio (610/450, background-corrected), Read1","[1]; BCL-xL-K-ko, 3 uM",11.8587 and 11.5989 and 13.3819
same,"NanoBRET ratio (610/450, background-corrected), Read2","[1]; BCL-xL-K-ko, 3 uM",10.5286 and 12.111 and 14.0861
same,"NanoBRET ratio (610/450, background-corrected), Ave of Read1 and Read2","[1]; BCL-xL-WT, 0.004 uM",9.743 and 11.8617 and 10.3438
same,"NanoBRET ratio (610/450, background-corrected), Ave of Read1 and Read2","[1]; BCL-xL-WT, 0.012 uM",9.762 and 10.7766 and 10.2017
same,"NanoBRET ratio (610/450, background-corrected), Read1","[1]; BCL-xL-WT, 0.333 uM",9.95 and 12.5908 and 9.76
same,"NanoBRET ratio (610/450, background-corrected), Read2","[1]; BCL-xL-WT, 0.333 uM",9.537 and 11.1326 and 10.9276
same,"NanoBRET ratio (610/450, background-corrected), Read1","[1]; BCL-xL-WT, 1 uM",10.2229 and 10.6812 and 9.915
same,"NanoBRET ratio (610/450, background-corrected), Read2","[1]; BCL-xL-WT, 1 uM",9.301 and 10.872 and 10.4881
same,"NanoBRET ratio (610/450, background-corrected), Read1","[1]; BCL-xL-WT, 3 uM",9.528 and 10.0038 and 9.921
same,"NanoBRET ratio (610/450, background-corrected), Read2","[1]; BCL-xL-WT, 3 uM",9.235 and 10.9871 and 9.69
